Structures are written as SMILES.

The target of the experiment is SARS-CoV-2 Mpro (Severe acute respiratory syndrome coronavirus 2, UniProt P0DTD1). Nature of the experiment: biochemical. The following applies: isolated compounds at 100 µg/mL; triplicate, mean (Figure 3).

Compound `C=C(C)[C@@H]1CC[C@]2(C(=O)O)CC[C@]3(C)[C@H](CC[C@@H]4[C@@]5(C)CC[C@H](O)C(C)(C)[C@@H]5CC[C@]43C)[C@@H]12` [V10, betulinic acid] showed an inhibition at 100 µg/mL of 0%.
